Laboratory results reported in patent US12139492B2 (Endotarget Inc., priority 2021, dated 2024).
pIC50: −log10 of the molar value.

Legend:
Format in all cases: cell-based
Mino cells = assay: Antiproliferative effect, MTS cell viability assay, Mino cells; conditions: Homo sapiens, MINO, Mino mantle cell lymphoma cells; read-out: IC50 (anti-proliferation) Mino cells
Procedure, shortened: (§1)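 Mino and JeKo-1 mantle B-cell lymphoma lines were exposed to compound at 0, 0.001, 0.01, 0.1, 1 and 10 μM for 72 h. Viability was read by MTS reduction to formazan, measured as absorbance at 490 nm.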

BTK = BTK (Homo sapiens, UniProt Q06187); assay: BTK degradation, DC50 and Dmax of Table 1 (cell line not given); set-up: endogenous in cells; conditions: for DC50: concentration giving 50% reduction of BTK expression level
Chain of BTK (Q06187 whole entry): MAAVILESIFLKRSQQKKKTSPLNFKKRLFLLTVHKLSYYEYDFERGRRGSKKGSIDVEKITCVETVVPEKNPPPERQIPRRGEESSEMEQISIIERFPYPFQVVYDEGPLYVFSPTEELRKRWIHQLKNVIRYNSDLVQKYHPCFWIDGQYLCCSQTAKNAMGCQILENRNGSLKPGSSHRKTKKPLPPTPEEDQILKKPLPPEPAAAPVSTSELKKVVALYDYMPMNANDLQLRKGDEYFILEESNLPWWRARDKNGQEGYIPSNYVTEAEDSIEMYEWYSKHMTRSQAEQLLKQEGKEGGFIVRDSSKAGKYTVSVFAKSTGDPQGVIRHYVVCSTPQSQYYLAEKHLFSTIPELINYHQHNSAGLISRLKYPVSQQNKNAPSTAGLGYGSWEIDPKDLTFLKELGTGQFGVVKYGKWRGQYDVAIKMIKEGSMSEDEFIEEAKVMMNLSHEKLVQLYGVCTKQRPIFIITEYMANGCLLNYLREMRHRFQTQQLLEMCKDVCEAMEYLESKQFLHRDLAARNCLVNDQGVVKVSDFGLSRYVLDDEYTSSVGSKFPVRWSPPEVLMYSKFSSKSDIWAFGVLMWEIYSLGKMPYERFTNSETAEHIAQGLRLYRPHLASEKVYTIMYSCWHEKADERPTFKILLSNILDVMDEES

JeKo-1 cells = assay: Antiproliferative effect, MTS cell viability assay, JeKo-1 cells; conditions: Homo sapiens; JeKo-1 mantle cell lymphoma cells; read-out: IC50 (anti-proliferation) JeKO-1 cells
Procedure, shortened: as §1

Row | SMILES | pIC50 (Mino cells) | Dmax (BTK) | DC50 (BTK) | pIC50 (JeKo-1 cells)
1 | Nc1ncnc2c1c(-c1ccc(Oc3ccccc3)cc1)nn2[C@@H]1CCCN(C(=O)N2CCN(CCN3CCC(c4ccc5c(c4)C(=O)N(C4CCC(=O)NC4=O)C5=O)CC3)CC2)C1 (stereo partly drawn) [Compound 69, 5-(1-(2-(4-((R)-3-(4-amino-3-(4-phenoxyphenyl)-1H-pyrazolo[3,4-d]pyrimidin-1-yl)piperidine-1-carbonyl)piperazin-1-yl)ethyl)piperidin-4-yl)-2-(2,6-dioxopiperidin-3-yl)isoindoline-1,3-dione] | 5.00 to 6.00 | > 90% | < 10 nM | 5.00 to 6.00
2 | Nc1ncnc2c1c(-c1ccc(Oc3ccccc3)cc1)nn2C1CCN(C(=O)N2CCN(CCN3CCC(c4ccc5c(c4)CN(C4CCC(=O)NC4=O)C5=O)CC3)CC2)CC1 (stereo not shown) [Compound 100, 3-(5-(1-(2-(4-(4-(4-amino-3-(4-phenoxyphenyl)-1H-pyrazolo[3,4-d]pyrimidin-1-yl)piperidine-1-carbonyl)piperazin-1-yl)ethyl)piperidin-4-yl)-1-oxoisoindolin-2-yl)piperidine-2,6-dione] | 5.00 to 6.00 | > 90% | 10 to 50 nM | 5.00 to 6.00
3 | Nc1ncnc2c1c(-c1ccc(Oc3ccccc3)cc1)nn2C1CCN(C(=O)N2CCC(N3CCC(c4ccc5c(c4)C(=O)N(C4CCC(=O)NC4=O)C5=O)CC3)CC2)CC1 (stereo not shown) [Compound 83, 5-(1′-(4-(4-amino-3-(4-phenoxyphenyl)-1H-pyrazolo[3,4-d]pyrimidin-1-yl)piperidine-1-carbonyl)-[1,4′-bipiperidin]-4-yl)-2-(2,6-dioxopiperidin-3-yl)isoindoline-1,3-dione] | < 5.00 | > 75% | > 50 nM | < 5.00
4 | Nc1ncnc2c1c(-c1ccc(Oc3ccccc3)cc1)nn2[C@@H]1CCCN(C2CCN(C(=O)N3CCC(N4CCC(c5ccc6c(c5)CN(C5CCC(=O)NC5=O)C6=O)CC4)CC3)CC2)C1 (stereo partly drawn) [Compound 166, 3-(5-(1′-((R)-3-(4-amino-3-(4-phenoxyphenyl)-1H-pyrazolo[3,4-d]pyrimidin-1-yl)-[1,4′-bipiperidine]-1′-carbonyl)-[1,4′-bipiperidin]-4-yl)-1-oxoisoindolin-2-yl)piperidine-2,6-dione] | 5.00 to 6.00 | > 90% | 10 to 50 nM | < 5.00
5 | Nc1ncnc2c1c(-c1ccc(Oc3ccccc3)cc1)nn2C1CCN(CC2CCN(C(=O)N3CCC(N4CCN(c5ccc6c(c5)CN(C5CCC(=O)NC5=O)C6=O)CC4)CC3)CC2)CC1 (stereo not shown) [Compound 38, 3-(5-(4-(1-(4-((4-(4-amino-3-(4-phenoxyphenyl)-1H-pyrazolo[3,4-d]pyrimidin-1-yl)piperidin-1-yl)methyl)piperidine-1-carbonyl)piperidin-4-yl)piperazin-1-yl)-1-oxoisoindolin-2-yl)piperidine-2,6-dione] | > 6.00 | > 90% | 10 to 50 nM | > 6.00
6 | Nc1ncnc2c1c(-c1ccc(Oc3ccccc3)cc1)nn2C1CCN(C(=O)N2CCN(CC3CCN(c4ccc5c(c4)C(=O)N(C4CCC(=O)NC4=O)C5=O)CC3)CC2)CC1 (stereo not shown) [Compound 87, 5-(4-((4-(4-(4-amino-3-(4-phenoxyphenyl)-1H-pyrazolo[3,4-d]pyrimidin-1-yl)piperidine-1-carbonyl)piperazin-1-yl)methyl)piperidin-1-yl)-2-(2,6-dioxopiperidin-3-yl)isoindoline-1,3-dione] | 5.00 to 6.00 | > 90% | 10 to 50 nM | > 6.00
7 | Nc1ncnc2c1c(-c1ccc(Oc3ccccc3)cc1)nn2[C@@H]1CCCN(C(=O)N2CCC(c3ccc4c(c3)C(=O)N(C3CCC(=O)NC3=O)C4=O)CC2)C1 (stereo partly drawn) [Compound 47, 5-(1-((R)-3-(4-amino-3-(4-phenoxyphenyl)-1H-pyrazolo[3,4-d]pyrimidin-1-yl)piperidine-1-carbonyl)piperidin-4-yl)-2-(2,6-dioxopiperidin-3-yl)isoindoline-1,3-dione] | < 5.00 | > 50% | > 50 nM | < 5.00
8 | Nc1ncnc2c1c(-c1ccc(Oc3ccccc3)cc1)nn2C1CCN(C(=O)N2CCC(CC3CCN(c4ccc5c(c4)C(=O)N(C4CCC(=O)NC4=O)C5=O)CC3)CC2)CC1 (stereo not shown) [Compound 89, 5-(4-((1-(4-(4-amino-3-(4-phenoxyphenyl)-1H-pyrazolo[3,4-d]pyrimidin-1-yl)piperidine-1-carbonyl)piperidin-4-yl)methyl)piperidin-1-yl)-2-(2,6-dioxopiperidin-3-yl)isoindoline-1,3-dione] | > 6.00 | > 90% | 10 to 50 nM | 5.00 to 6.00
9 | Nc1ncnc2c1c(-c1ccc(Oc3ccccc3)cc1)nn2[C@@H]1CCCN(CC2CCN(C(=O)N3CCN(c4ccc5c(c4)CN(C4CCC(=O)NC4=O)C5=O)CC3)CC2)C1 (stereo partly drawn) [Compound 26, 3-(5-(4-(4-(((R)-3-(4-amino-3-(4-phenoxyphenyl)-1H-pyrazolo[3,4-d]pyrimidin-1-yl)piperidin-1-yl)methyl)piperidine-1-carbonyl)piperazin-1-yl)-1-oxoisoindolin-2-yl)piperidine-2,6-dione] | 5.00 to 6.00 | > 75% | > 50 nM | 5.00 to 6.00
10 | Nc1ncnc2c1c(-c1ccc(Oc3ccccc3)cc1)nn2C1CCN(C(=O)N2CCN(CCN3CCN(c4ccc5c(c4)CN(C4CCC(=O)NC4=O)C5=O)CC3)CC2)CC1 (stereo not shown) [Compound 96, 3-(5-(4-(2-(4-(4-(4-amino-3-(4-phenoxyphenyl)-1H-pyrazolo[3,4-d]pyrimidin-1-yl)piperidine-1-carbonyl)piperazin-1-yl)ethyl)piperazin-1-yl)-1-oxoisoindolin-2-yl)piperidine-2,6-dione] | 5.00 to 6.00 | > 90% | 10 to 50 nM | 5.00 to 6.00
11 | Nc1ncnc2c1c(-c1ccc(Oc3ccccc3)cc1)nn2[C@@H]1CCCN(C(=O)N2CCC(CN3CCC(c4ccc5c(c4)CN(C4CCC(=O)NC4=O)C5=O)CC3)CC2)C1 (stereo partly drawn) [Compound 62, 3-(5-(1-((1-((R)-3-(4-amino-3-(4-phenoxyphenyl)-1H-pyrazolo[3,4-d]pyrimidin-1-yl)piperidine-1-carbonyl)piperidin-4-yl)methyl)piperidin-4-yl)-1-oxoisoindolin-2-yl)piperidine-2,6-dione] | > 6.00 | > 90% | 10 to 50 nM | > 6.00
12 | Nc1ncnc2c1c(-c1ccc(Oc3ccccc3)cc1)nn2C1CCN(C(=O)N2CCC(CCCC3CCN(c4ccc5c(c4)C(=O)N(C4CCC(=O)NC4=O)C5=O)CC3)CC2)CC1 (stereo not shown) [Compound 125, 5-(4-(3-(1-(4-(4-amino-3-(4-phenoxyphenyl)-1H-pyrazolo[3,4-d]pyrimidin-1-yl)piperidine-1-carbonyl)piperidin-4-yl)propyl)piperidin-1-yl)-2-(2,6-dioxopiperidin-3-yl)isoindoline-1,3-dione] | < 5.00 | > 90% | > 50 nM | 5.00 to 6.00
13 | Nc1ncnc2c1c(-c1ccc(Oc3ccccc3)cc1)nn2C1CCN(C(=O)N2CCC(CN3CCC(c4ccc5c(c4)C(=O)N(C4CCC(=O)NC4=O)C5=O)CC3)CC2)CC1 (stereo not shown) [Compound 91, 5-(1-((1-(4-(4-amino-3-(4-phenoxyphenyl)-1H-pyrazolo[3,4-d]pyrimidin-1-yl)piperidine-1-carbonyl)piperidin-4-yl)methyl)piperidin-4-yl)-2-(2,6-dioxopiperidin-3-yl)isoindoline-1,3-dione] | 5.00 to 6.00 | > 90% | < 10 nM | 5.00 to 6.00
